Legend:
[1] = target: T1, purified recombinant human Aggrecanase-1 (rAgg1) (Homo sapiens, UniProt O75173); experiment: In vitro fluorescence screen for Aggrecanase-1 inhibitors; assay type: biochemical; details: Table 2; read-out: Agg1 IC50
T1 sequence (O75173 213-837): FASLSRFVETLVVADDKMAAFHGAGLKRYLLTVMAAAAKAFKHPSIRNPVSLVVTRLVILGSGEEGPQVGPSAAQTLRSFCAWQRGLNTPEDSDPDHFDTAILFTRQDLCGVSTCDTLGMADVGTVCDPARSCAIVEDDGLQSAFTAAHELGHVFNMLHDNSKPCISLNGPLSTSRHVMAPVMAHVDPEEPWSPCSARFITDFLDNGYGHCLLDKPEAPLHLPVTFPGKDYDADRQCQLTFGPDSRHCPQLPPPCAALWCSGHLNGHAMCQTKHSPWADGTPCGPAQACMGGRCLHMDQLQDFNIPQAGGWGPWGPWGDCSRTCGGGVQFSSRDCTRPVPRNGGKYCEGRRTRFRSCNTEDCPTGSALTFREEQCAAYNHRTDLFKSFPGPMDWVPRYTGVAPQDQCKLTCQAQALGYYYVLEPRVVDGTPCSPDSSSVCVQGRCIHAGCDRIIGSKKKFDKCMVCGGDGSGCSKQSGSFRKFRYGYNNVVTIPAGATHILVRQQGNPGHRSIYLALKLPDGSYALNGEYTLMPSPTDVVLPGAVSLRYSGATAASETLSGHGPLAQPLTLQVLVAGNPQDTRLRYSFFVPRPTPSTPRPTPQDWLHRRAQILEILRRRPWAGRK

[2] = target: T2, purified recombinant human Aggrecanase-2 (Ag2t-Phe628-Strep) (Homo sapiens, UniProt Q9UNA0); experiment: In vitro fluorescence screen for Aggrecanase-2 inhibitors; assay type: biochemical; details: Table 2; read-out: Agg 2 IC50
T2 construct: the form used is denoted as Ag2t-Phe628-Strep (MW=41,737)
T2 sequence (Q9UNA0 262-628): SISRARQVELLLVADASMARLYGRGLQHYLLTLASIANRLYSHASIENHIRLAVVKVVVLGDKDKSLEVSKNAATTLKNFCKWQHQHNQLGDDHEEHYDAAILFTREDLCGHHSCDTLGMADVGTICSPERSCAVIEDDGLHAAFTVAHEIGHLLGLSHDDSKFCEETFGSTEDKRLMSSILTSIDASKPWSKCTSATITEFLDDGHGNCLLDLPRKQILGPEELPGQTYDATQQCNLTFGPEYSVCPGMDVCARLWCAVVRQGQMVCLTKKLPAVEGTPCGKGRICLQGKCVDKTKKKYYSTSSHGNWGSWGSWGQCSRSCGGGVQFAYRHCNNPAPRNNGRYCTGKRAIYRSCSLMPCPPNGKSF

Structure (SMILES) | IC50 [1] [µM] | IC50 [2] [µM]
COc1ccc(-c2ccc(C(=O)N[C@@H](CCC(=O)O)C(=O)NC(C)(C)Cc3ccccc3)cc2)c(OC)c1 [Example 17Q, N^2-[(2′,4′-dimethoxybiphenyl-4-yl)carbonyl]-N-(1,1-dimethyl-2-phenylethyl)-L-α-glutamine] | ~13 | > 30
O=C(O)CC[C@H](NC(=O)c1ccc(C#CC2CCC(O)CC2)cc1)C(=O)NCc1ccccc1 (stereo partly drawn) [Example 17QQ, N-benzyl-N^2-{4-[(4-hydroxycyclohexyl)ethynyl]benzoyl}-L-α-glutamine] | > 25 | ~22
COc1cc(CNC(=O)[C@H](CCC(=O)O)NC(=O)c2ccc(-c3cccc(O)c3)cc2)cc(OC)c1OC [Example 17RR, N^2-[(3′-hydroxybiphenyl-4-yl)carbonyl]-N-(3,4,5-trimethoxybenzyl)-L-α-glutamine] | < 0.03 | 0.026
CC(C)(Cc1ccccc1)NC(=O)[C@H](CCC(=O)O)NC(=O)c1ccc(-c2ccc(-c3ccccc3)cc2)cc1 [Example 17U, N-(1,1-dimethyl-2-phenylethyl)-N^2-(1,1′:4′,1″-terphenyl-4-ylcarbonyl)-L-α-glutamine] | 1.8 | ~6.7
CC(C)(Cc1ccc(F)cc1)NC(=O)[C@H](CCC(=O)O)NC(=O)c1ccc(-c2cccc(O)c2)cc1 [Example 17UU, N-[2-(4-fluorophenyl)-1,1-dimethylethyl]-N^2-[(3′-hydroxybiphenyl-4-yl)carbonyl]-L-α-glutamine] | < 0.03 | 0.039
COc1cc(CNC(=O)[C@H](CCC(=O)O)NC(=O)c2ccc(-c3ccc(O)cc3)cc2)cc(OC)c1OC [Example 17V, N^2-[(4′-hydroxybiphenyl-4-yl)carbonyl]-N-(3,4,5-trimethoxybenzyl)-L-α-glutamine] | 0.09 | 1.8
CN(C)C(=O)c1cccc(-c2ccc(C(=O)N[C@@H](CCC(=O)O)C(=O)NCC34CC5CC(CC(C5)C3)C4)cc2)c1 [Example 17W, N-(1-adamantylmethyl)-N^2-({3′-[(dimethylamino)carbonyl]biphenyl-4-yl}carbonyl)-L-α-glutamine] | > 25 | ~67
Cc1cc(C)cc(-c2ccc(C(=O)N[C@@H](CCC(=O)O)C(=O)NCC34CC5CC(CC(C5)C3)C4)cc2)c1 [Example 17X, N-(1-adamantylmethyl)-N^2-[(3′,5′-dimethylbiphenyl-4-yl)carbonyl]-L-α-glutamine] | 2 | ~22
Cc1cccc(-c2ccc(C(=O)N[C@@H](CCC(=O)O)C(=O)NC(C)(C)Cc3ccc(F)cc3)cc2)c1 [Example 17Y, N-[2-(4-fluorophenyl)-1,1-dimethylethyl]-N^2-[(3′-methylbiphenyl-4-yl)carbonyl]-L-α-glutamine] | < 0.03 | 0.156

The next lines start with the values.

IC50 [1] [µM] | IC50 [2] [µM] | Structure (SMILES)
4.6 | 10.1 | CCC(C)c1ccc(-c2ccc(C(=O)N[C@@H](CCC(=O)O)C(=O)NC(C)(C)Cc3ccccc3)cc2)cc1 (stereo partly drawn) [Example 17S, N^2-[(4′-sec-butylbiphenyl-4-yl)carbonyl]-N-(1,1-dimethyl-2-phenylethyl)-L-α-glutamine]
0.45 | 3.96 | CC(C)(Cc1ccccc1)NC(=O)[C@H](CCC(=O)O)NC(=O)c1ccc(-c2ccc(CO)cc2)cc1 [Example 17SS, N-(1,1-dimethyl-2-phenylethyl)-N^2-{[4′-(hydroxymethyl)biphenyl-4-yl]carbonyl}-L-α-glutamine]
3.2 | 7.2 | CC(C)c1ccc(-c2ccc(C(=O)N[C@@H](CCC(=O)O)C(=O)NC(C)(C)Cc3ccccc3)cc2)cc1 [Example 17T, N-(1,1-dimethyl-2-phenylethyl)-N^2-[(4′-isopropylbiphenyl-4-yl)carbonyl]-L-α-glutamine]
0.12 | 0.173 | Cc1ccc(-c2ccc(C(=O)N[C@@H](CCC(=O)O)C(=O)NC(C)(C)Cc3ccccc3)cc2)cc1 [Example 17TT, N-(1,1-dimethyl-2-phenylethyl)-N^2-[(4′-methylbiphenyl-4-yl)carbonyl]-L-α-glutamine]

Reference: patent publication US7998965B2, “Glutamate aggrecanase inhibitors” (Wyeth LLC, priority 2005, dated 2011)
